Experimental data as given in ChEMBL document CHEMBL3885881, “DrugMatrix”.

Organism: Rattus norvegicus
Type: toxicity, organism-based, Sprague-Dawley
Settings: in vivo, po, route oral GAVAGE, vehicle 100 % SALINE; for ABSOLUTE EOSINOPHIL / ABSOLUTE LYMPHOCYTE / ABSOLUTE MONOCYTE / ABSOLUTE SEGMENTED NEUTROPHIL / BASOPHIL / EOSINOPHIL / ERYTHROCYTE COUNT / HEMATOCRIT / HEMOGLOBIN / LEUKOCYTE COUNT / LYMPHOCYTE / MEAN CORPUSCULAR HEMOGLOBIN / MEAN CORPUSCULAR HEMOGLOBIN CONCENTRATION / MONOCYTE / NEUTROPHIL / NUCLEATED RED BLOOD CELLS / PLATELET COUNT: tissue Blood; for ALANINE AMINOTRANSFERASE / ALBUMIN / ALKALINE PHOSPHATASE / ASPARTATE AMINOTRANSFERASE / BLOOD UREA NITROGEN / CARBON DIOXIDE / CHLORIDE / CHOLESTEROL / CREATINE PHOSPHOKINASE / CREATININE / GLUCOSE / LACTATE DEHYDROGENASE / LIPASE / PHOSPHORUS / POTASSIUM / SODIUM / TOTAL BILIRUBIN / TOTAL PROTEIN / URIC ACID: tissue Plasma
[1] = 700 mg/kg, 24 h, dose level Low, time 1 day
[2] = 2100 mg/kg, 6 h, dose level High, time 0.25 day
[3] = 2100 mg/kg, 24 h, dose level High, time 1 day

Description: DrugMatrix - Regimen: Single

CN(C)C=O [DIMETHYLFORMAMIDE]
ABSOLUTE EOSINOPHIL [1]: 0 CELLS/uL
ABSOLUTE LYMPHOCYTE [1]: 11354.83 CELLS/uL
ABSOLUTE MONOCYTE [1]: 102.33 CELLS/uL
ABSOLUTE SEGMENTED NEUTROPHIL [1]: 726.17 CELLS/uL
BASOPHIL [1]: 0%
EOSINOPHIL [1]: 0%
ERYTHROCYTE COUNT [1]: 5.12 x10E6/uL
HEMATOCRIT [1]: 33.43%
HEMOGLOBIN [1]: 13.52 G/DL
LEUKOCYTE COUNT [1]: 12.18 x10E3/uL
LYMPHOCYTE [1]: 93.17%
MEAN CORPUSCULAR HEMOGLOBIN [1]: 26.43 pg
MEAN CORPUSCULAR HEMOGLOBIN CONCENTRATION [1]: 40.52 G/DL
MONOCYTE [1]: 0.83%
NEUTROPHIL [1]: 6%
NUCLEATED RED BLOOD CELLS [1]: 0 /100WBC
PLATELET COUNT [1]: 1092.67 x10E3/uL
ALANINE AMINOTRANSFERASE [1]: 23.17 u/L
ALBUMIN [1]: 4.17 G/DL
ALKALINE PHOSPHATASE [1]: 336.83 u/L
ASPARTATE AMINOTRANSFERASE [1]: 50.5 u/L
BLOOD UREA NITROGEN [1]: 12.5 mg/dL
CARBON DIOXIDE [1]: 31.17 mmol/L
CHLORIDE [1]: 96.83 MEQ/L
CHOLESTEROL [1]: 74.83 mg/dL
CREATINE PHOSPHOKINASE [1]: 314.83 u/L
CREATININE [1]: 0.19 mg/dL
GLUCOSE [1]: 144.5 mg/dL
LACTATE DEHYDROGENASE [1]: 95 u/L
LIPASE [1]: 9.67 u/L
PHOSPHORUS [1]: 10.98 mg/dL
POTASSIUM [1]: 5.69 MEQ/L
SODIUM [1]: 142.42 MEQ/L
TOTAL BILIRUBIN [1]: 0.12 mg/dL
TOTAL PROTEIN [1]: 6.2 G/DL
URIC ACID [1]: 0.68 mg/dL
ABSOLUTE EOSINOPHIL [2]: 125.17 CELLS/uL
ABSOLUTE LYMPHOCYTE [2]: 14316 CELLS/uL
ABSOLUTE MONOCYTE [2]: 63 CELLS/uL
ABSOLUTE SEGMENTED NEUTROPHIL [2]: 1412.5 CELLS/uL
BASOPHIL [2]: 0%
EOSINOPHIL [2]: 0.83%
ERYTHROCYTE COUNT [2]: 5.21 x10E6/uL
HEMATOCRIT [2]: 35.07%
HEMOGLOBIN [2]: 12.68 G/DL
LEUKOCYTE COUNT [2]: 15.92 x10E3/uL
LYMPHOCYTE [2]: 89.67%
MEAN CORPUSCULAR HEMOGLOBIN [2]: 24.33 pg
MEAN CORPUSCULAR HEMOGLOBIN CONCENTRATION [2]: 36.2 G/DL
MONOCYTE [2]: 0.33%
NEUTROPHIL [2]: 9.17%
NUCLEATED RED BLOOD CELLS [2]: 0 /100WBC
PLATELET COUNT [2]: 1045.5 x10E3/uL
ALANINE AMINOTRANSFERASE [2]: 61 u/L
ALBUMIN [2]: 4.12 G/DL
ALKALINE PHOSPHATASE [2]: 276.83 u/L
ASPARTATE AMINOTRANSFERASE [2]: 108.5 u/L
BLOOD UREA NITROGEN [2]: 6.5 mg/dL
CARBON DIOXIDE [2]: 20.17 mmol/L
CHLORIDE [2]: 106 MEQ/L
CHOLESTEROL [2]: 72.83 mg/dL
CREATINE PHOSPHOKINASE [2]: 210.67 u/L
CREATININE [2]: 0.24 mg/dL
GLUCOSE [2]: 180 mg/dL
LACTATE DEHYDROGENASE [2]: 149.33 u/L
LIPASE [2]: 8.17 u/L
PHOSPHORUS [2]: 13.73 mg/dL
SODIUM [2]: 144.38 MEQ/L
TOTAL BILIRUBIN [2]: 0.1 mg/dL
TOTAL PROTEIN [2]: 5.32 G/DL
URIC ACID [2]: 2.23 mg/dL
ABSOLUTE EOSINOPHIL [3]: 20.83 CELLS/uL
ABSOLUTE LYMPHOCYTE [3]: 12212.83 CELLS/uL
ABSOLUTE MONOCYTE [3]: 201.33 CELLS/uL
ABSOLUTE SEGMENTED NEUTROPHIL [3]: 481.67 CELLS/uL
BASOPHIL [3]: 0%
EOSINOPHIL [3]: 0.17%
ERYTHROCYTE COUNT [3]: 5.11 x10E6/uL
HEMATOCRIT [3]: 32.92%
HEMOGLOBIN [3]: 13.1 G/DL
LEUKOCYTE COUNT [3]: 12.92 x10E3/uL
LYMPHOCYTE [3]: 94.67%
MEAN CORPUSCULAR HEMOGLOBIN [3]: 25.65 pg
MEAN CORPUSCULAR HEMOGLOBIN CONCENTRATION [3]: 39.83 G/DL
MONOCYTE [3]: 1.5%
NEUTROPHIL [3]: 3.67%
NUCLEATED RED BLOOD CELLS [3]: 0.17 /100WBC
PLATELET COUNT [3]: 1033.5 x10E3/uL
ALANINE AMINOTRANSFERASE [3]: 24.17 u/L
ALBUMIN [3]: 4.07 G/DL
ALKALINE PHOSPHATASE [3]: 292.33 u/L
ASPARTATE AMINOTRANSFERASE [3]: 43.17 u/L
BLOOD UREA NITROGEN [3]: 10.5 mg/dL
CARBON DIOXIDE [3]: 30.5 mmol/L
CHLORIDE [3]: 99.17 MEQ/L
CHOLESTEROL [3]: 80.33 mg/dL
CREATINE PHOSPHOKINASE [3]: 164.67 u/L
CREATININE [3]: 0.19 mg/dL
GLUCOSE [3]: 147.33 mg/dL
LACTATE DEHYDROGENASE [3]: 73.33 u/L
LIPASE [3]: 10.33 u/L
PHOSPHORUS [3]: 10.72 mg/dL
POTASSIUM [3]: 5.2 MEQ/L
SODIUM [3]: 143.78 MEQ/L
TOTAL BILIRUBIN [3]: 0.1 mg/dL
TOTAL PROTEIN [3]: 5.97 G/DL
URIC ACID [3]: 0.63 mg/dL
